Laboratory results reported in US7888363B2, “Viral polymerase inhibitors” (Boehringer Ingelheim International GmbH, priority 2003, dated 2011).

The compounds below were run against hepatitis C virus RNA dependant polymerase (NS5B) (Hepatitis C virus genotype 1b, UniProt P26663) (assay: Inhibition of NS5B RNA dependent RNA polymerase activity). Details: Table 7; class ranges.
Type: biochemical
Description: A suitable assay is described in the examples.
Inhibition of NS5B RNA Dependent RNA Polymerase Activity
The compounds of the invention were tested for inhibitory activity against the hepatitis C virus RNA dependant polymerase (NS5B), according to protocol described in WO 03/010141

hepatitis C virus RNA dependant polymerase (NS5B), sequence (P26663 2420-3010): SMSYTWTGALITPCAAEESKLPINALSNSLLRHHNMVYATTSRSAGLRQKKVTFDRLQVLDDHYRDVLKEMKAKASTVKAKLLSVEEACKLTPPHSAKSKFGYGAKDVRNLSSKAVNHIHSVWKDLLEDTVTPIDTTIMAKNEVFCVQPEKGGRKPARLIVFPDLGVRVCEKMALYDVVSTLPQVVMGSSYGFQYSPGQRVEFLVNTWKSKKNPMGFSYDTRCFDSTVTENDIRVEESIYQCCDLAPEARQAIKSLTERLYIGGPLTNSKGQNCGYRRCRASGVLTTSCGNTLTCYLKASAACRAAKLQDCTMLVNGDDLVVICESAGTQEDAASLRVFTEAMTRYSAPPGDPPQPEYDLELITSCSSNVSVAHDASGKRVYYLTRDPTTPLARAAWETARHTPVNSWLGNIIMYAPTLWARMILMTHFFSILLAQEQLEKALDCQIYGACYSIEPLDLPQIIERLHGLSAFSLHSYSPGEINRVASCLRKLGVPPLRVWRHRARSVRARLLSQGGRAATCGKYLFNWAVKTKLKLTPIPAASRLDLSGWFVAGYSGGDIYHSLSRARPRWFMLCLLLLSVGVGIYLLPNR

`O=C(NC1CCCc2ccccc21)c1ccc2c(c1)c(C1CCCCC1)c(-c1ccoc1)n2CC(=O)N1CCC(N2CCCC2)CC1` (stereo not shown) [Example 7012] and `O=C(Nc1ccccc1)c1ccc2c(c1)c(C1CCCCC1)c(-c1ccoc1)n2CC(=O)N1CCC(N2CCCC2)CC1` [Example 7023] fall in the same range of IC50: 1000 to 10000 nM for the first, 1000 to 10000 nM for the second.

`CCN1CCCC1CNC(=O)c1ccc2c(c1)c(C1CCCCC1)c(-c1ccoc1)n2CC(=O)N1CCC(N2CCCC2)CC1` (stereo not shown) [Example 7013] and `O=C(NCC1CCCO1)c1ccc2c(c1)c(C1CCCCC1)c(-c1ccoc1)n2CC(=O)N1CCC(N2CCCC2)CC1` (stereo not shown) [Example 7016] fall in the same range of IC50: 1000 to 10000 nM for the first, 1000 to 10000 nM for the second.

`O=C(NCCN1CCCC1)c1ccc2c(c1)c(C1CCCCC1)c(-c1ccoc1)n2CC(=O)N1CCC(N2CCCC2)CC1` [Example 7014] and `O=C(NCCN1CCNC1=O)c1ccc2c(c1)c(C1CCCCC1)c(-c1ccoc1)n2CC(=O)N1CCC(N2CCCC2)CC1` [Example 7044] fall in the same range of IC50: 1000 to 10000 nM for the first, 1000 to 10000 nM for the second.

`O=C(NCCc1c[nH]cn1)c1ccc2c(c1)c(C1CCCCC1)c(-c1ccoc1)n2CC(=O)N1CCC(N2CCCC2)CC1` [Example 7015] and `O=C(NCc1ccccn1)c1ccc2c(c1)c(C1CCCCC1)c(-c1ccoc1)n2CC(=O)N1CCC(N2CCCC2)CC1` [Example 7019] fall in the same range of IC50: 1000 to 10000 nM for the first, 1000 to 10000 nM for the second.

`NC(=O)C1CCCN(C(=O)c2ccc3c(c2)c(C2CCCCC2)c(-c2ccoc2)n3CC(=O)N2CCC(N3CCCC3)CC2)C1` (stereo not shown) [Example 7017] and `NC(=O)C1CCN(C(=O)c2ccc3c(c2)c(C2CCCCC2)c(-c2ccoc2)n3CC(=O)N2CCC(N3CCCC3)CC2)CC1` [Example 7035] fall in the same range of IC50: 1000 to 10000 nM for the first, 1000 to 10000 nM for the second.

`O=C(Nc1ccc(N2CCOCC2)cc1)c1ccc2c(c1)c(C1CCCCC1)c(-c1ccoc1)n2CC(=O)N1CCC(N2CCCC2)CC1` [Example 7018] and `O=C(Nc1ccc(CCO)cc1)c1ccc2c(c1)c(C1CCCCC1)c(-c1ccoc1)n2CC(=O)N1CCC(N2CCCC2)CC1` [Example 7024] fall in the same range of IC50: 1000 to 10000 nM for the first, 1000 to 10000 nM for the second.

`CN(CCc1ccccn1)C(=O)c1ccc2c(c1)c(C1CCCCC1)c(-c1ccoc1)n2CC(=O)N1CCC(N2CCCC2)CC1` [Example 7020] and `CN(C)C(=O)c1ccc2c(c1)c(C1CCCCC1)c(-c1ccoc1)n2CC(=O)N1CCC(N2CCCC2)CC1` [Example 7033] fall in the same range of IC50: 1000 to 10000 nM for the first, 1000 to 10000 nM for the second.

`O=C(NCc1cccnc1)c1ccc2c(c1)c(C1CCCCC1)c(-c1ccoc1)n2CC(=O)N1CCC(N2CCCC2)CC1` [Example 7021] and `O=C(NCc1ccccc1)c1ccc2c(c1)c(C1CCCCC1)c(-c1ccoc1)n2CC(=O)N1CCC(N2CCCC2)CC1` [Example 7027] fall in the same range of IC50: 1000 to 10000 nM for the first, 1000 to 10000 nM for the second.

`O=C(NC(Cc1ccccc1)c1ccccc1)c1ccc2c(c1)c(C1CCCCC1)c(-c1ccoc1)n2CC(=O)N1CCC(N2CCCC2)CC1` (stereo not shown) [Example 7025] and `O=C(NC(CCO)c1ccccc1)c1ccc2c(c1)c(C1CCCCC1)c(-c1ccoc1)n2CC(=O)N1CCC(N2CCCC2)CC1` (stereo not shown) [Example 7049] fall in the same range of IC50: 1000 to 10000 nM for the first, 1000 to 10000 nM for the second.

`CC(NC(=O)c1ccc2c(c1)c(C1CCCCC1)c(-c1ccoc1)n2CC(=O)N1CCC(N2CCCC2)CC1)c1ccccc1` (stereo not shown) [Example 7026] and `CC(CNC(=O)c1ccc2c(c1)c(C1CCCCC1)c(-c1ccoc1)n2CC(=O)N1CCC(N2CCCC2)CC1)c1ccccc1` (stereo not shown) [Example 7030] fall in the same range of IC50: 1000 to 10000 nM for the first, 1000 to 10000 nM for the second.

`COc1ccc(CNC(=O)c2ccc3c(c2)c(C2CCCCC2)c(-c2ccoc2)n3CC(=O)N2CCC(N3CCCC3)CC2)cc1OC` [Example 7028] and `Cc1cccc(CNC(=O)c2ccc3c(c2)c(C2CCCCC2)c(-c2ccoc2)n3CC(=O)N2CCC(N3CCCC3)CC2)c1` [Example 7029] fall in the same range of IC50: 1000 to 10000 nM for the first, 1000 to 10000 nM for the second.

`CC(=O)NCCNC(=O)c1ccc2c(c1)c(C1CCCCC1)c(-c1ccoc1)n2CC(=O)N1CCC(N2CCCC2)CC1` [Example 7031] and `CNC(=O)c1ccc2c(c1)c(C1CCCCC1)c(-c1ccoc1)n2CC(=O)N1CCC(N2CCCC2)CC1` [Example 7034] fall in the same range of IC50: 1000 to 10000 nM for the first, 1000 to 10000 nM for the second.

`NS(=O)(=O)c1ccc(CCNC(=O)c2ccc3c(c2)c(C2CCCCC2)c(-c2ccoc2)n3CC(=O)N2CCC(N3CCCC3)CC2)cc1` [Example 7032] and `O=C(O)c1ccc(CNC(=O)c2ccc3c(c2)c(C2CCCCC2)c(-c2ccoc2)n3CC(=O)N2CCC(N3CCCC3)CC2)cc1` [Example 7045] fall in the same range of IC50: 1000 to 10000 nM for the first, 1000 to 10000 nM for the second.

`O=C(NCc1c(F)cccc1Cl)c1ccc2c(c1)c(C1CCCCC1)c(-c1ccoc1)n2CC(=O)N1CCC(N2CCCC2)CC1` [Example 7036] and `O=C(NCCSCc1c(F)cccc1Cl)c1ccc2c(c1)c(C1CCCCC1)c(-c1ccoc1)n2CC(=O)N1CCC(N2CCCC2)CC1` [Example 7038] fall in the same range of IC50: 1000 to 10000 nM for the first, 1000 to 10000 nM for the second.

`O=C(Nc1cccc(-c2ccccc2)c1)c1ccc2c(c1)c(C1CCCCC1)c(-c1ccoc1)n2CC(=O)N1CCC(N2CCCC2)CC1` [Example 7037] and `O=C(O)Cc1cccc(NC(=O)c2ccc3c(c2)c(C2CCCCC2)c(-c2ccoc2)n3CC(=O)N2CCC(N3CCCC3)CC2)c1` [Example 7055] fall in the same range of IC50: 1000 to 10000 nM for the first, 1000 to 10000 nM for the second.

`CC(=O)NC1CCN(C(=O)c2ccc3c(c2)c(C2CCCCC2)c(-c2ccoc2)n3CC(=O)N2CCC(N3CCCC3)CC2)C1` (stereo not shown) [Example 7039] and `NC(=O)c1ccc2c(c1)c(C1CCCCC1)c(-c1ccoc1)n2CC(=O)N1CCC(N2CCCC2)CC1` [Example 7058] fall in the same range of IC50: 1000 to 10000 nM for the first, 1000 to 10000 nM for the second.

`O=C(NC1CCN(Cc2ccccc2)C1)c1ccc2c(c1)c(C1CCCCC1)c(-c1ccoc1)n2CC(=O)N1CCC(N2CCCC2)CC1` (stereo not shown) [Example 7040] and `O=C(NS(=O)(=O)c1ccccc1)c1ccc2c(c1)c(C1CCCCC1)c(-c1ccoc1)n2CC(=O)N1CCC(N2CCCC2)CC1` [Example 7063] fall in the same range of IC50: 1000 to 10000 nM for the first, 1000 to 10000 nM for the second.

`O=C(N[C@H]1CC[C@H](O)CC1)c1ccc2c(c1)c(C1CCCCC1)c(-c1ccoc1)n2CC(=O)N1CCC(N2CCCC2)CC1` [Example 7041] and `O=C(NC[C@H]1CC[C@H](C(=O)O)CC1)c1ccc2c(c1)c(C1CCCCC1)c(-c1ccoc1)n2CC(=O)N1CCC(N2CCCC2)CC1` [Example 7054] fall in the same range of IC50: 1000 to 10000 nM for the first, 1000 to 10000 nM for the second.

`O=C(NCc1ccc(F)c(C(F)(F)F)c1)c1ccc2c(c1)c(C1CCCCC1)c(-c1ccoc1)n2CC(=O)N1CCC(N2CCCC2)CC1` [Example 7042] and `Cc1cnc(CNC(=O)c2ccc3c(c2)c(C2CCCCC2)c(-c2ccoc2)n3CC(=O)N2CCC(N3CCCC3)CC2)cn1` [Example 7052] fall in the same range of IC50: 1000 to 10000 nM for the first, 1000 to 10000 nM for the second.

`CC(C)CC(NC(=O)c1ccc2c(c1)c(C1CCCCC1)c(-c1ccoc1)n2CC(=O)N1CCC(N2CCCC2)CC1)C(N)=O` (stereo not shown) [Example 7046] and `O=C(O)CC(NC(=O)c1ccc2c(c1)c(C1CCCCC1)c(-c1ccoc1)n2CC(=O)N1CCC(N2CCCC2)CC1)C(F)(F)F` (stereo not shown) [Example 7051] fall in the same range of IC50: 1000 to 10000 nM for the first, 1000 to 10000 nM for the second.

`CC(C)(C)OC(=O)C(C)(C)NC(=O)c1ccc2c(c1)c(C1CCCCC1)c(-c1ccoc1)n2CC(=O)N1CCC(N2CCCC2)CC1` [Example 7047] and `O=C(NCCOCCO)c1ccc2c(c1)c(C1CCCCC1)c(-c1ccoc1)n2CC(=O)N1CCC(N2CCCC2)CC1` [Example 7059] fall in the same range of IC50: 1000 to 10000 nM for the first, 1000 to 10000 nM for the second.

`Cc1oc(-c2ccc(NC(=O)c3ccc4c(c3)c(C3CCCCC3)c(-c3ccoc3)n4CC(=O)N3CCC(N4CCCC4)CC3)cc2)cc1C(=O)O` [Example 7048] and `O=C(O)CCc1cccc(NC(=O)c2ccc3c(c2)c(C2CCCCC2)c(-c2ccoc2)n3CC(=O)N2CCC(N3CCCC3)CC2)c1` [Example 7056] fall in the same range of IC50: 1000 to 10000 nM for the first, 1000 to 10000 nM for the second.

Compared with `CN1C(C)(C)CC(NC(=O)c2ccc3c(c2)c(C2CCCCC2)c(-c2ccoc2)n3CC(=O)N2CCC(N3CCCC3)CC2)CC1(C)C` [Example 7053], `CC(C)(C)NC(=O)[C@@H]1Cc2ccccc2CN1C(=O)c1ccc2c(c1)c(C1CCCCC1)c(-c1ccoc1)n2CC(=O)N1CCC(N2CCCC2)CC1` [Example 7061] is higher in IC50: 200 to 1000 nM for the first, 1000 to 10000 nM for the second.

`COC(=O)C(Cc1ccc(O)cc1)NC(=O)c1ccc2c(c1)c(C1CCCCC1)c(-c1ccoc1)n2CC(=O)N1CCC(N2CCCC2)CC1` (stereo not shown) [Example 7057] and `COC(=O)C(Cc1ccc(Cl)cc1)NC(=O)c1ccc2c(c1)c(C1CCCCC1)c(-c1ccoc1)n2CC(=O)N1CCC(N2CCCC2)CC1` (stereo not shown) [Example 7060] fall in the same range of IC50: 1000 to 10000 nM for the first, 1000 to 10000 nM for the second.

`O=C(O)/C=C/c1ccc(NC(=O)C2(NC(=O)c3ccc4c(c3)c(C3CCCCC3)c(-c3ccoc3)n4CC(=O)N3CCC(N4CCCC4)CC3)CCC2)cc1` [Example 7062] gave an IC50 of 1000 to 10000 nM.
